The text below walks through data of ChEMBL document CHEMBL5126581, “Chlorinated benzothiadiazines inhibit angiogenesis through suppression of VEGFR2 phosphorylation” (Bioorg Med Chem, 2022).

One data set has as its system HUVEC. The experiment in a line: Antiangiogenic activity in HUVEC cells assessed as inhibition of VEGF-induced cell proliferation at 20 uM incubated for 48 hrs by MTT assay relative to control. The format is functional. To be noted: Homo sapiens, values are per cent of control. (In general: Formazan colour is commonly taken as a measure of viable cells.)
Data set [1] can be described thus: Cytotoxicity against HEK293 cells assessed as inhibition of cell growth incubated for 72 hrs by MTS assay. As to conditions: human. The format is toxicity, cell-based.
Another data set concerns MDA-MB-468. The experiment in a line: Cytotoxicity against human MDA-MB-468 cells assessed as inhibition of cell growth incubated for 72 hrs by MTS assay. The format is functional, cell-based. As to conditions: MDA-MB-468, 72 h.
In another data set the target is Carbonic anhydrase 12 (Homo sapiens, UniProt O43570). The experiment in a line: Inhibition of recombinant human carbonic anhydrase 12 assessed as inhibition constant incubated for 1 hr prior to testing by phenol red based stopped-flow CO2 hydration assay.
In another data set the target is Carbonic anhydrase 1 (Homo sapiens, UniProt P00915). The experiment in a line: Inhibition of recombinant human carbonic anhydrase 1 assessed as inhibition constant incubated for 1 hr prior to testing by phenol red based stopped-flow CO2 hydration assay.
The target in the next data set is Carbonic anhydrase 2 (Homo sapiens, UniProt P00918). The experiment in a line: Inhibition of recombinant human carbonic anhydrase 2 assessed as inhibition constant incubated for 1 hr prior to testing by phenol red based stopped-flow CO2 hydration assay.
For the next data set, the target named is Carbonic anhydrase 9 (Homo sapiens, UniProt Q16790). The experiment in a line: Inhibition of recombinant human carbonic anhydrase 9 assessed as inhibition constant incubated for 1 hr prior to testing by phenol red based stopped-flow CO2 hydration assay.
Data set [2] concerns the target Vascular endothelial growth factor receptor 2 (Homo sapiens, UniProt P35968). The experiment in a line: Inhibition of VEGFR2 phosphorylation in VEGF-induced HUVEC cells assessed as reduction in pVEGFR2 level at 20 uM incubated for 5 mins by Western blot analysis. The format is cell-based.
Data set [3] in a line: Selectivity index, ratio of IC50 for cytotoxicity against HEK293 cells to IC50 for cytotoxicity against human MDA-MB-468 cells. The format is toxicity, cell-based. As to conditions: HEK293 cells versus MDA-MB-468 cells, read-out: Ratio IC50.

The source made the active and inactive calls. The rule behind the calls is not given here. A value given as a limit tells only on which side of the number the result lay.

In general, IC50 refers to the concentration that gives 50% inhibition. One may read the Ki as a measure of affinity in units of concentration, obtained from inhibition or displacement.

Carbonic anhydrase 12, sequence (O43570 whole entry): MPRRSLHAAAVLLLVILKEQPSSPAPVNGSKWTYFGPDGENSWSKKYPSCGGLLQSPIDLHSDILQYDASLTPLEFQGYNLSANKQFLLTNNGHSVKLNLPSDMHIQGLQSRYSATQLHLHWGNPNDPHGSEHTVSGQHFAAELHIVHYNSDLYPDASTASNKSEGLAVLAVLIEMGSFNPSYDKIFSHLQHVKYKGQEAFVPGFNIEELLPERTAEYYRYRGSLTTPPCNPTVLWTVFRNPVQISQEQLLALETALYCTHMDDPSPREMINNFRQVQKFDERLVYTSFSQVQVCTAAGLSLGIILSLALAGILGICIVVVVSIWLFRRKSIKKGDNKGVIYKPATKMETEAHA
Vascular endothelial growth factor receptor 2, sequence (P35968 whole entry): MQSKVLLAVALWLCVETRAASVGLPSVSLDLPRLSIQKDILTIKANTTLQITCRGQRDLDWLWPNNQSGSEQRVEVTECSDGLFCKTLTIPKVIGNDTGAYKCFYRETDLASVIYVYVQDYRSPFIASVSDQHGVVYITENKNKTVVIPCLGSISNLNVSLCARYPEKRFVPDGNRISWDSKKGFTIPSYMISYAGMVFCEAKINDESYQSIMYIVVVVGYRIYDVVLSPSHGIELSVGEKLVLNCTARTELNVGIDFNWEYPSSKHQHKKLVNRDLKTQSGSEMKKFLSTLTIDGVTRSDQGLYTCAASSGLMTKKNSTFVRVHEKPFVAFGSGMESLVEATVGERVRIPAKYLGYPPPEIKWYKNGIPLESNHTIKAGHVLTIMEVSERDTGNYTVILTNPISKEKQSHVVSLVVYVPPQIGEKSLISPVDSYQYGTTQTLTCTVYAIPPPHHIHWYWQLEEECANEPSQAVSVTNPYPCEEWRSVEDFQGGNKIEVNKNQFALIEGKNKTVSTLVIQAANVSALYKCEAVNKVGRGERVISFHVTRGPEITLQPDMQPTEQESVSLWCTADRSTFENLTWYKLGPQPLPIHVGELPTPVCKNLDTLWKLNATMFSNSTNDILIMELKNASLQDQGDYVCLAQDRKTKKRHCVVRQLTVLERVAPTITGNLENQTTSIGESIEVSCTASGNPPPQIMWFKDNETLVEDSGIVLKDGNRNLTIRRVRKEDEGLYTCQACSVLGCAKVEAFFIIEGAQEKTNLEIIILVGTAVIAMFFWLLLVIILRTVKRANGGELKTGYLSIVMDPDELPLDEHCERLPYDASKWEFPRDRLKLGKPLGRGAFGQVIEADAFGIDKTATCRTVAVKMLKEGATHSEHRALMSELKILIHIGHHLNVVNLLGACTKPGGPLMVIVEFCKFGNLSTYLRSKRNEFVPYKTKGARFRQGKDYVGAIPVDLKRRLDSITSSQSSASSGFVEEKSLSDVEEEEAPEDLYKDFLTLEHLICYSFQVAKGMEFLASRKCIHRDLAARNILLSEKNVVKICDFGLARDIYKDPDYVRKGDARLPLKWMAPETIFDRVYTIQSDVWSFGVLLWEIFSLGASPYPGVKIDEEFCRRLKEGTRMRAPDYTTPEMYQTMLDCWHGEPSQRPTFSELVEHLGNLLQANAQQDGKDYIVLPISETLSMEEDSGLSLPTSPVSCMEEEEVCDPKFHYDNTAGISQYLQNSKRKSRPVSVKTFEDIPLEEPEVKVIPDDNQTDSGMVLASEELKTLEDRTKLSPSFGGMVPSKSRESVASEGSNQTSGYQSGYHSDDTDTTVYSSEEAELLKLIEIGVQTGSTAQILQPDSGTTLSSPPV
Carbonic anhydrase 1, sequence (P00915 whole entry): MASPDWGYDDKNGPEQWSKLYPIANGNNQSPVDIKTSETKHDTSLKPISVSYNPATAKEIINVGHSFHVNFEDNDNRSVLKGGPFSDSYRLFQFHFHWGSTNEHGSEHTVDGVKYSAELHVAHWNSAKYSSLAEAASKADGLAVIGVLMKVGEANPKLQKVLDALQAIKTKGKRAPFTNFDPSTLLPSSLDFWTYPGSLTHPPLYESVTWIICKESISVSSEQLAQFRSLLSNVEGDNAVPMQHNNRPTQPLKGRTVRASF

Regarding `CCNC1=NS(=O)(=O)c2ccccc2N1`, in the data set on HUVEC, the growth, % of control at 20 µM is 88.4%.

For the molecule `O=S1(=O)N=C(NCCCc2ccccc2)Nc2ccc(Br)cc21`, in the data set with HUVEC, the growth, % of control at 20 µM is 28.6%.

As to `O=S1(=O)N=C(NCCCCc2ccccc2)Nc2ccc(Cl)cc21`, the growth, % of control at 20 µM with HUVEC stood at 116%. For the same molecule, the IC50 at 72 h in [1] is 23.4 µM.

Turning to `COc1cccc(CNC2=NS(=O)(=O)c3ccc(Cl)cc3N2)c1`, in the data set with HUVEC, the growth, % of control at 20 µM stood at 129%.

On to `O=S1(=O)N=C(NCc2ccc(F)cc2F)Nc2ccc(Br)cc21`, for which, in the data set on HUVEC, the growth, % of control at 20 µM came to 127%.

Turning to `CSC1=NS(=O)(=O)c2ccc(Cl)cc2N1`, in the data set on HUVEC, the growth, % of control at 20 µM worked out at 20.9%.

`CC(NC1=NS(=O)(=O)c2ccc(Cl)cc2N1)c1ccccc1` (centres undefined): the growth, % of control at 20 µM in the data set on HUVEC was found to be 40.5%. Besides, in the data set with MDA-MB-468, the IC50 was 91.1 µM.

On to `O=S1(=O)N=C(NCc2ccccc2)Nc2ccc(Cl)cc21`, for which the growth, % of control at 20 µM with HUVEC is 122%.

Regarding `CSC1=NS(=O)(=O)c2cc(F)ccc2N1C`, in the data set with HUVEC, the growth, % of control at 20 µM stood at 70.1%.

Consider `O=S1(=O)N=C(NCc2ccc(OC(F)(F)F)cc2)Nc2ccccc21`, for which the growth, % of control at 20 µM in the data set with HUVEC came out at 88.6%. The IC50 in the data set with MDA-MB-468 amounted to 71 µM.

Turning to `O=S1(=O)N=C(NCc2ccc(C(F)(F)F)cc2)Nc2cc(Cl)ccc21`, the growth, % of control at 20 µM with HUVEC was determined as 8.6%.

Regarding `COc1ccccc1CNC1=NS(=O)(=O)c2ccc(Cl)cc2N1`, the growth, % of control at 20 µM in the data set on HUVEC was found to be 83.9%.

`COc1ccc(CNC2=NS(=O)(=O)c3cc(Cl)ccc3N2)cc1`: the Ki on Carbonic anhydrase 12, at Carbonic anhydrase 1, at Carbonic anhydrase 2 and on Carbonic anhydrase 9 was greater than 100 µM each time. The growth, % of control at 20 µM with HUVEC stood at 90.7%. Besides, the IC50 in the data set with MDA-MB-468 was found to be 62.9 µM.

Turning to `COc1cccc(CCNC2=NS(=O)(=O)c3ccc(Cl)cc3N2)c1`, the growth, % of control at 20 µM with HUVEC was determined as 103%.

For the molecule `O=S1(=O)N=C(NCCCc2ccccc2)Nc2ccccc21`, the growth, % of control at 20 µM in the data set on HUVEC came out at 53.6%.

In the case of `O=S1(=O)N=C(NCCc2c[nH]c3ccccc23)Nc2ccc(F)cc21`, the growth, % of control at 20 µM in the data set on HUVEC came out at 41.8%.

Turning to `Cc1cccc(CNC2=NS(=O)(=O)c3cc(Cl)ccc3N2)c1`, in [2], the inhibition entry is “Active”. Moreover, the growth, % of control at 20 µM with HUVEC was 145%. The IC50 with MDA-MB-468 was found to be 117 µM.

Turning to `O=S1(=O)N=C(NC2CCCC2)Nc2cc(Cl)ccc21`, the growth, % of control at 20 µM in the data set on HUVEC is 174%. Also, in the data set on MDA-MB-468, the IC50 amounted to 148 µM.

As for `O=S1(=O)N=C(NCCc2ccccc2)Nc2ccc(Br)cc21`, in the data set on HUVEC, the growth, % of control at 20 µM was determined as 52.7%.

Consider `O=S1(=O)N=C(NCc2ccc(F)cc2F)Nc2cc(Cl)ccc21`, for which the selectivity ratio in data set [3] worked out at 1.5. Besides, in the data set on HUVEC, the growth, % of control at 20 µM was determined as 172%. The IC50 in the data set on MDA-MB-468 came to 84.6 µM. The half-maximal inhibitory concentration (IC50) at 72 h in data set [1] worked out at 129 µM.

Take `COc1ccc(CNC2=NS(=O)(=O)c3ccc(Cl)cc3N2)cc1`: the growth, % of control at 20 µM with HUVEC was found to be 132%.

As for `O=S1(=O)N=C(NCc2ccncc2)Nc2ccc(Cl)cc21`, the growth, % of control at 20 µM with HUVEC was determined as 66.8%.

For the molecule `O=S1(=O)N=C(NCCc2c[nH]c3ccccc23)Nc2cc(Cl)ccc21`, the growth, % of control at 20 µM in the data set with HUVEC was 34.1%.

Turning to `O=S1(=O)N=C(NC2CCCC2)Nc2ccc(Cl)cc21`, in [2], the inhibition entry was “Active”. Further, the IC50 in the data set on MDA-MB-468 is 77 µM.

For `O=S1(=O)N=C(NCc2ccc(F)cc2F)Nc2ccc(Cl)cc21`, the selectivity ratio in [3] was 1.3. The growth, % of control at 20 µM with HUVEC amounted to 133%. For the same molecule, the IC50 in the data set on MDA-MB-468 was determined as 45.5 µM. The IC50 at 72 h in data set [1] stood at 58.9 µM.

On to `Cc1ccccc1CNC1=NS(=O)(=O)c2ccc(Cl)cc2N1`, for which the growth, % of control at 20 µM in the data set on HUVEC came to 112%.

As for `O=S1(=O)NC(=S)Nc2ccc(F)cc21`, the growth, % of control at 20 µM in the data set on HUVEC turned out to be 50.1%.

For `O=S1(=O)N=C(NCc2ccccc2OC(F)(F)F)Nc2cc(Cl)ccc21`, in [3], the selectivity ratio is 2. Moreover, in the data set on HUVEC, the growth, % of control at 20 µM was 124%. In addition, in the data set on MDA-MB-468, the IC50 was 14.9 µM. Moreover, the IC50 at 72 h in [1] worked out at 30.5 µM.

Take `O=S1(=O)N=C(NCCCc2ccccc2)Nc2cc(Cl)ccc21`: the selectivity ratio in [3] amounted to 1.2. For the same molecule, in the data set with HUVEC, the growth, % of control at 20 µM amounted to 175%. Moreover, in the data set on MDA-MB-468, the IC50 was 91.9 µM. Moreover, the IC50 at 72 h in data set [1] stood at 111 µM.

In the case of `NS(=O)(=O)c1ccc(CCNC2=NS(=O)(=O)c3ccc(Cl)cc3N2)cc1`, the results for the Ki at Carbonic anhydrase 12, on Carbonic anhydrase 1 and on Carbonic anhydrase 2 were 0.0038 µM, 0.0501 µM and 0.0088 µM, respectively.

With `CC(NC1=NS(=O)(=O)c2cc(Cl)ccc2N1)c1ccccc1` (centres undefined), the growth, % of control at 20 µM with HUVEC was 53.7%.

As to `O=S1(=O)N=C(NCc2ccc(OC(F)(F)F)cc2)Nc2ccc(Cl)cc21`, in the data set on HUVEC, the growth, % of control at 20 µM came to 120%. Moreover, the IC50 in the data set on MDA-MB-468 came out at 43.4 µM.

`O=S1(=O)N=C(NCc2ccc(F)cc2)Nc2ccc(Cl)cc21`: in the data set on HUVEC, the growth, % of control at 20 µM amounted to 70.4%.

For `O=S1(=O)N=C(NCc2ccccc2)Nc2cc(Cl)ccc21`, the selectivity ratio in data set [3] turned out to be 1.5. Further, the growth, % of control at 20 µM in the data set on HUVEC turned out to be 200%. The IC50 in the data set on MDA-MB-468 came to 64.2 µM. In addition, in data set [1], the IC50 at 72 h was determined as 102 µM.

Turning to `O=S1(=O)N=C(NCCc2ccccc2)Nc2ccc(Cl)cc21`, in the data set with HUVEC, the growth, % of control at 20 µM turned out to be 81.7%.

Turning to `CC1=Nc2ccc(Cl)cc2S(=O)(=O)N1` [DIAZOXIDE], the growth, % of control at 20 µM with HUVEC turned out to be 15.2%.

As for `CC(NC1=NS(=O)(=O)c2ccccc2N1)c1ccccc1` (centres undefined), the inhibition entry in [2] is “Active”. In addition, the growth, % of control at 20 µM with HUVEC stood at 25.2%. For the same molecule, in the data set on MDA-MB-468, the IC50 was determined as 58.5 µM.

Turning to `Cc1ccccc1CNC1=NS(=O)(=O)c2cc(Cl)ccc2N1`, in the data set on HUVEC, the growth, % of control at 20 µM amounted to 117%.

`CC(C)C(C)NC1=NS(=O)(=O)c2cc(F)ccc2N1` (centres undefined): the growth, % of control at 20 µM in the data set with HUVEC was found to be 76.4%.

For the molecule `O=S1(=O)N=C(NCCCc2ccccc2)Nc2ccc(Cl)cc21`, in data set [3], the selectivity ratio came to 0.5. The growth, % of control at 20 µM in the data set on HUVEC came out at 91.6%. Also, the IC50 in the data set on MDA-MB-468 is 56.6 µM. Also, the IC50 at 72 h in [1] is 30.9 µM.

`CC(NC1=NS(=O)(=O)c2cc(Br)ccc2N1)c1ccccc1` (centres undefined): in the data set with HUVEC, the growth, % of control at 20 µM was 104%.

Take `Cc1cccc(CNC2=NS(=O)(=O)c3ccc(Cl)cc3N2)c1`: the growth, % of control at 20 µM in the data set on HUVEC was found to be 125%.

With `CCCCCC(=O)c1c(O)nc(OC)c(OC)c1O`, the selectivity ratio in data set [3] amounted to 3.9. In addition, in the data set on MDA-MB-468, the IC50 is 6.71 µM. Also, the half-inhibitory concentration (IC50) at 72 h in data set [1] was found to be 25.9 µM.

As for `COc1cccc(CNC2=NS(=O)(=O)c3cc(Cl)ccc3N2)c1`, the inhibition entry in [2] is “Active”. Moreover, the growth, % of control at 20 µM in the data set on HUVEC stood at 95.5%. Further, the IC50 with MDA-MB-468 is greater than 100 µM.

As for `Cc1ccc(CNC2=NS(=O)(=O)c3cc(Cl)ccc3N2)cc1`, in the data set on HUVEC, the growth, % of control at 20 µM was found to be 119%. The IC50 with MDA-MB-468 was 43.1 µM.

Consider `Cc1ccc(CNC2=NS(=O)(=O)c3ccc(Cl)cc3N2)cc1`, for which the growth, % of control at 20 µM with HUVEC stood at 146%.

Regarding `COc1ccc(CCNC2=NS(=O)(=O)c3cc(F)ccc3N2)cc1`, the Ki on Carbonic anhydrase 12, at Carbonic anhydrase 1, on Carbonic anhydrase 2 and on Carbonic anhydrase 9 was greater than 100 µM throughout.

As for `O=S1(=O)N=C(NCc2ccc(OC(F)(F)F)cc2)Nc2ccc(Br)cc21`, the Ki at Carbonic anhydrase 12, on Carbonic anhydrase 1, at Carbonic anhydrase 2 and on Carbonic anhydrase 9 was greater than 100 µM in each case. In addition, the inhibition entry in data set [2] is “Active”. For the same molecule, the growth, % of control at 20 µM in the data set with HUVEC worked out at 127%. In addition, the IC50 in the data set on MDA-MB-468 was found to be 39.1 µM.

In the case of `COc1ccccc1CNC1=NS(=O)(=O)c2cc(F)ccc2N1`, the growth, % of control at 20 µM with HUVEC worked out at 29.4%.

With `O=S1(=O)N=C(NCCc2ccccc2)Nc2cc(Cl)ccc21`, the growth, % of control at 20 µM with HUVEC amounted to 197%.
